In article PMC12073402, “A Selective MAP3K1 Inhibitor Facilitates Discovery of NPM1 as a Member of the Network” (Molecules, 2025):

Test system: TNF-α–induced MAP3K1-IKKβ–mediated NF-κB transcription
Test: NF-κB luciferase reporter assay in HeLa cells
Assay type: cell-based
Conditions: 20, 10, 5 μM, TNF-α 20 ng/mL, 6 h
Text: MAP3K1 was previously shown to phosphorylate IKKβ [12] and regulate NF-κB signaling. Therefore, we validated the ability of 51-106 to inhibit MAP3K1 by probing the phosphorylation status of the known substrate, IKKβ, using an AlphaLISA assay. The pancreatic cancer cells (MiaPaCa2) were subjected to a 30-min pretreatment with varying concentrations of 51-106, followed by TNFα stimulation to induce IKKβ phosphorylation. Following a 15-min stimulation, the levels of phospho-IKKβ and total IKKβ were quantified. […] (Figure 3A). Next, we evaluated the efficacy of 51-106 in a cell-based reporter assay utilizing a HeLa cell line that specifically responds to TNFα induced expression of a luciferase reporter gene that is under the control of an NF-κB response element.
A suspension of HeLa-NFkB-Luc cells (Cat# SL-0001; Signosis; Santa Clara, CA, USA) (2 × 10^4/well) in 80 μL media was plated in white-walled, flat, clear-bottomed, sterile, 96-well tissue culture plates (Cat# 3610; Corning). The cells were allowed to adhere overnight in a humidified 5% CO2 incubator at 37 °C. […] Post stimulation addition (6 h), fluorescence (Ex 560, Em 590) was measured on the plate reader to assess cell viability. […] Luminescence (1000 ms) was measured on the plate reader set to the kinetic mode of acquisition for 15 min. The luminescence data were normalized to the AlamarBlue values. […]

In the case of `Cn1cc(-c2cnc3ccc(NC(=O)Nc4ccc(F)c(C(F)(F)F)c4)cc3n2)cn1` [51-106, 1-(4-Fluoro-3-(trifluoromethyl)phenyl)-3-(3-(1-methyl-1H-pyrazol-4-yl)quinoxalin-6-yl)urea], the “TNF-α–induced NF-κB transcription (luciferase reporter)” value is reported as “dose-dependent inhibition”.
